Results taken from patent US7485641B2, “Substituted 3-amino-pyrrolidino-4-lactams” (Pfizer, Inc., priority 2006, dated 2009).
Counter-ions that a name gives are not always drawn.

Each compound was assayed against T1, DPP-IV (Homo sapiens, UniProt P27487) (assay: In vitro assay for dipeptidyl peptidase inhibition). Settings: at 300 nM; n-value given in brackets; read-out: DPP-IV Percent Inhibition at 300 nM.
T1 construct: purchased Enzyme Systems Products SPE-01
Assay type: biochemical

T1 sequence (P27487 whole entry, species assumed): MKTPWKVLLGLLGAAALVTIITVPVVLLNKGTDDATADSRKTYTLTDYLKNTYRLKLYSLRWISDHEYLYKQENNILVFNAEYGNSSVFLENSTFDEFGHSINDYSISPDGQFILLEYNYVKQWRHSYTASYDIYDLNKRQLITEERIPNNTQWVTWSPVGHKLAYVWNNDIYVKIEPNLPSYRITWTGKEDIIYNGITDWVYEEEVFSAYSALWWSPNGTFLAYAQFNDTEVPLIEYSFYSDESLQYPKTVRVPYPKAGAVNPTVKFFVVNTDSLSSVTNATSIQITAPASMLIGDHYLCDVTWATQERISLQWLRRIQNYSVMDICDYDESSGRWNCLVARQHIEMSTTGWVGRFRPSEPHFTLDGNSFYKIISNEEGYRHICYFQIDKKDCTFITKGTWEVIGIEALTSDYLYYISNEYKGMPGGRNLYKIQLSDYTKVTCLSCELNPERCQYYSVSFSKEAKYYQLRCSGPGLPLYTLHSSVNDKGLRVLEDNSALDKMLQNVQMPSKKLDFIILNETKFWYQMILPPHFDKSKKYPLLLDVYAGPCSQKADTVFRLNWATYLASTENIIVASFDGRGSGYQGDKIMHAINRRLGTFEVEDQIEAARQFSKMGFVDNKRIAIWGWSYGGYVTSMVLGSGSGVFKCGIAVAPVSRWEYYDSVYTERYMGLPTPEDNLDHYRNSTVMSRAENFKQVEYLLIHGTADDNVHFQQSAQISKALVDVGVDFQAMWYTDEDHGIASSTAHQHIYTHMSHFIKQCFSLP

inhibition at 0.3 µM | SMILES
23.2% | N[C@H]1CN(c2cc(OCC(F)(F)C(F)F)ncn2)C[C@@H]1N1CCCCC1=O [Example 94, 1-((3S,4S)-4-Amino-1-(6-(2,2,3,3-tetrafluoropropoxy)pyrimidin-4-yl)pyrrolidin-3-yl)piperidin-2-one trifluoroacetate]
17.7% | CC(C)C(C)Oc1cc(N2C[C@H](N)[C@@H](N3CCCCC3=O)C2)ncn1 (stereo partly drawn) [Example 95, 1-((3S,4S)-4-Amino-1-(6-(3-methylbutan-2-yloxy)pyrimidin-4-yl)pyrrolidin-3-yl)piperidin-2-one trifluoroacetate]
47% | COc1ccc2ncnc(N3C[C@H](N)[C@@H](N4CCCCC4=O)C3)c2c1 [Example 107, 1-((3S,4S)-4-amino-1-(6-methoxyquinazolin-4-yl)pyrrolidin-3-yl)piperidin-2-one]

Same assay, conditions: n-value given in brackets; read-out: DPP-IV IC50

IC50 | SMILES
1.99 nM | CS(=O)(=O)c1ccccc1S(=O)(=O)Oc1ccc2c(N3C[C@H](N)[C@@H](N4CCCCC4=O)C3)ncnc2c1 [Example 96, 4-((3S,4S)-3-amino-4-(2-oxopiperidin-1-Vl)pyrrolidin-1-yl)quinazolin-7-yl 2-(methylsulfonyl)benzenesulfonate]
< 1 nM | CS(=O)(=O)c1ccccc1S(=O)(=O)Oc1ccc2c(N3C[C@H](N)[C@@H](N4CC(F)(F)CCC4=O)C3)ncnc2c1 [Example 97, 4-((3S,4S)-3-amino-4-(5,5-difluoro-2-oxopiperidin-1-yl)pyrrolidin-1-yl)quinazolin-7-yl 2-(methylsulfonyl)benzenesulfonate]
34.2 nM | COc1ccc2c(N3C[C@H](N)[C@@H](N4CC(F)(F)CCC4=O)C3)ncnc2c1 [Example 98, 1-((3S,4S)-4-amino-1-(7-methoxyquinazolin-4-yl)pyrrolidin-3-yl)-5,5-difluoropiperidin-2-one]
38.4 nM | CCSc1ccc2c(N3C[C@H](N)[C@@H](N4CC(F)(F)CCC4=O)C3)ncnc2c1 [Example 99, 1-((3S,4S)-4-amino-1-(7-(ethylthio)quinazolin-4-yl)pyrrolidin-3-yl)-5,5-difluoropiperidin-2-one]
44.7 nM | CC(C)Oc1ccc2c(N3C[C@H](N)[C@@H](N4CC(F)(F)CCC4=O)C3)ncnc2c1 [Example 100, 1-((3S,4S)-4-amino-1-(7-isopropoxyquinazolin-4-yl)pyrrolidin-3-yl)-5,5-difluoropiperidin-2-one]
122 nM | N[C@H]1CN(c2ncnc3cc(Oc4ccccc4)ccc23)C[C@@H]1N1CC(F)(F)CCC1=O [Example 101, 1-((3S,4S)-4-amino-1-(7-phenoxyquinazolin-4-yl)pyrrolidin-3-yl)-5,5-difluoropiperidin-2-one]
61.4 nM | N[C@H]1CN(c2ncnc3cc(Cl)ccc23)C[C@@H]1N1CCCCC1=O [Example 102, 1-[(3S,4S)-4-Amino-1-(7-chloro-quinazolin-4-yl)-pyrrolidin-3-yl]-piperidin-2-one hydrochloride]
26.1 nM | COc1ccc2c(N3C[C@H](N)[C@@H](N4CCCCC4=O)C3)ncnc2c1 [Example 103, 1-[(3S,4S)-4-Amino-1-(7-methoxy-quinazolin-4-yl)-pyrrolidin-3-yl]-piperidin-2-one hydrochloride]
132 nM | N[C@H]1CN(c2ncnc3ccc(Cl)cc23)C[C@@H]1N1CCCCC1=O [Example 104, 1-[(3S,4S)-4-Amino-1-(6-chloro-quinazolin-4-yl)-pyrrolidin-3-yl]-piperidin-2-one hydrochloride]
241 nM | N[C@H]1CN(c2ncnc3cc(F)ccc23)C[C@@H]1N1CCCCC1=O [Example 105, 1-((3S,4S)-4-Amino-1-(7-fluoroquinazolin-4-yl)pyrrolidin-3-yl)piperidin-2-one trifluoroacetate]
99.6 nM | COc1cc2ncnc(N3C[C@H](N)[C@@H](N4CCCCC4=O)C3)c2cc1Cl [Example 106, 1-((3S,4S)-4-Amino-1-(6-chloro-7-methoxyquinazolin-4-yl)pyrrolidin-3-yl)piperidin-2-one trifluoroacetate]
175 nM | COc1cccc2c(N3C[C@H](N)[C@@H](N4CCCCC4=O)C3)ncnc12 [Example 108, 1-((3S,4S)-4-Amino-1-(8-methoxyquinazolin-4-yl)pyrrolidin-3-yl)piperidin-2-one trifluoroacetate]
110 nM | N[C@H]1CN(c2ncnc3c(F)cccc23)C[C@@H]1N1CCCCC1=O [Example 109, 1-((3S,4S)-Amino-1-(8-fluoroquinazolin-4-yl)pyrrolidin-3-yl)piperidin-2-one trifluoroacetate]
47.2 nM | N[C@H]1CN(c2ncnc3cc(C(F)(F)F)ccc23)C[C@@H]1N1CCCCC1=O [Example 110, 1-((3S,4S)-4-amino-1-(7-(trifluoromethyl)quinazolin-4-yl)pyrrolidin-3-yl)piperidin-2-one]
228 nM | N[C@H]1CN(c2ncnc3cc(C4CCCC4)ccc23)C[C@@H]1N1CCCCC1=O [Example 111, 1-((3S,4S)-4-amino-1-(7-cyclopentylquinazolin-4-yl)pyrrolidin-3-yl)piperidin-2-one]
72.5 nM | N[C@H]1CN(c2ncnc3cc(Oc4ccccc4)ccc23)C[C@@H]1N1CCCCC1=O [Example 113, 1-((3S,4S)-4-amino-1-(7-phenoxyquinazolin-4-yl)pyrrolidin-3-yl)piperidin-2-one]
109 nM | N[C@H]1CN(c2ncnc3cc(OCc4ccccc4)ccc23)C[C@@H]1N1CCCCC1=O [Example 114, 1-((3S,4S)-4-amino-1-(7-(benzyloxy)quinazolin-4-yl)pyrrolidin-3-yl)piperidin-2-one]

IC50 | SMILES
29.7 nM | CC(C)Oc1ccc2c(N3C[C@H](N)[C@@H](N4CCCCC4=O)C3)ncnc2c1 [Example 115, 1-((3S,4S)-4-amino-1-(7-isopropoxyquinazolin-4-yl)pyrrolidin-3-yl)piperidin-2-one]
55.9 nM | CC(C)c1ccc2c(N3C[C@H](N)[C@@H](N4CCCCC4=O)C3)ncnc2c1 [Example 116, 1-((3S,4S)-4-amino-1-(7-isopropylquinazolin-4-yl)pyrrolidin-3-yl)piperidin-2-one]
206 nM | CCC(CC)c1ccc2c(N3C[C@H](N)[C@@H](N4CCCCC4=O)C3)ncnc2c1 [Example 117, 1-((3S,4S)-4-amino-1-(7-(pentan-3-yl)quinazolin-4-yl)pyrrolidin-3-yl)piperidin-2-one]
85.2 nM | N#CCCc1ccc2c(N3C[C@H](N)[C@@H](N4CCCCC4=O)C3)ncnc2c1 [Example 118, 3-(4-((3S,4S)-3-amino-4-(2-oxopiperidin-1-yl)pyrrolidin-1-yl)quinazolin-7-yl)propanenitrile]
107 nM | N[C@H]1CN(c2ncnc3cc(OC4CCCC4)ccc23)C[C@@H]1N1CCCCC1=O [Example 119, 1-((3S,4S)-4-amino-1-(7-(cyclopentyloxy)quinazolin-4-yl)pyrrolidin-3-yl)piperidin-2-one]
79.8 nM | N[C@H]1CN(c2ncnc3cc(Oc4cccc(F)c4)ccc23)C[C@@H]1N1CCCCC1=O [Example 120, 1-((3S,4S)-4-amino-1-(7-(3-fluorophenoxy)quinazolin-4-yl)pyrrolidin-3-yl)piperidin-2-oneformate]
183 nM | N#Cc1ccc(Oc2ccc3c(N4C[C@H](N)[C@@H](N5CCCCC5=O)C4)ncnc3c2)nc1 [Example 121, 6-(4-((3S,4S)-3-amino-4-(2-oxopiperidin-1-yl)pyrrolidin-1-yl)quinazolin-7-yloxy)nicotinonitrile]
148 nM | N[C@H]1CN(c2ncnc3cc(OCC(F)(F)F)ccc23)C[C@@H]1N1CCCCC1=O [Example 122, 1-((3S,4S)-4-amino-1-(7-(2,2,2-trifluoroethoxy)quinazolin-4-yl)pyrrolidin-3-yl)piperidin-2-one]
113 nM | N[C@H]1CN(c2ncnc3cc(O)ccc23)C[C@@H]1N1CCCCC1=O [Example 123, 1-((3S,4S)-4-amino-1-(7-hydroxyquinazolin-4-yl)pyrrolidin-3-yl)piperidin-2-one trifluoroacetate]
33.2 nM | N[C@H]1CN(c2ncnc3cc(OC(F)F)ccc23)C[C@@H]1N1CCCCC1=O [Example 124, 1-((3S,4S)-4-amino-1-(7-(difluoromethoxy)quinazolin-4-yl)pyrrolidin-3-yl)piperidin-2-one]
66.8 nM | CC(C)(O)c1ccc2c(N3C[C@H](N)[C@@H](N4CCCCC4=O)C3)ncnc2c1 [Example 126, 1-((3S,4S)-4-amino-1-(7-(2-hydroxypropan-2-yl)quinazolin-4-yl)pyrrolidin-3-yl)piperidin-2-one]
137 nM | N[C@H]1CN(c2ncnc3cc(Oc4ccc(C(F)(F)F)cn4)ccc23)C[C@@H]1N1CCCCC1=O [Example 127, 1-((3S,4S)-4-amino-1-(7-(5-(trifluoromethyl)pyridin-2-yloxy)quinazolin-4-yl)pyrrolidin-3-yl)piperidin-2-one]
222 nM | N[C@H]1CN(c2ncnc3cc(Oc4ccc(F)cc4)ccc23)C[C@@H]1N1CCCCC1=O [Example 128, 1-((3S,4S)-4-amino-1-(7-(4-fluorophenoxy)quinazolin-4-yl)pyrrolidin-3-yl)piperidin-2-one]
61.5 nM | COc1ccc(Oc2ccc3c(N4C[C@H](N)[C@@H](N5CCCCC5=O)C4)ncnc3c2)cc1 [Example 129, 1-((3S,4S)-4-amino-1-(7-(4-methoxyphenoxy)quinazolin-4-yl)pyrrolidin-3-yl)piperidin-2-one]
60.5 nM | N[C@H]1CN(c2ncnc3cc(Sc4cccc(F)c4)ccc23)C[C@@H]1N1CCCCC1=O [Example 130, 1-((3S,4S)-4-amino-1-(7-(3-fluorophenylthio)quinazolin-4-yl)pyrrolidin-3-yl)piperidin-2-oneformate]
189 nM | N[C@H]1CN(c2ncnc3cc(Oc4ccc(OC(F)(F)F)cc4)ccc23)C[C@@H]1N1CCCCC1=O [Example 131, 1-((3S,4S)-4-amino-1-(7-(4-(trifluoromethoxy)phenoxy)quinazolin-4-yl)pyrrolidin-3-yl)piperidin-2-oneformate]

SMILES | IC50
N[C@H]1CN(c2ncnc3cc(OC4CCC4)ccc23)C[C@@H]1N1CCCCC1=O [Example 125, 1-((3S,4S)-4-amino-1-(7-cyclobutoxyquinazolin-4-yl)pyrrolidin-3-yl)piperidin-2-one] | 101 nM
